According to ChEMBL document CHEMBL1949514, “Design, Synthesis, and Antitumor Activity of 4-Halocolchicines and Their Pro-drugs Activated by Cathepsin B” (ACS Med Chem Lett, 2011):

Columns and labels:
HT-29 = assay: Cytotoxicity against human HT-29 cells after 96 hrs using tetracolor one; format: functional, cell-based; conditions: HT-29, 96 h
A549 = assay: Cytotoxicity against human A549 cells after 96 hrs using tetracolor one; format: functional, cell-based; conditions: A549, 96 h
[1] = Chemical stability of the compound after 24 hrs by HPLC analysis; format: physicochemical
HUVEC [2] = assay: Selectivity ratio of IC50 for human HUVEC cells to IC50 for human HT-29 cells
[3] = Prodrug conversion assessed as (S)-7-Amino-4-fluoro-1,2,3,10-tetramethoxy-6,7-dihydro-5H-benzo[a]heptalen-9-one release at 4 uM in presence of bovine spleen cathepsin-B by HPLC analysis; format: physicochemical; conditions: cattle
HUVEC [4] = assay: Cytotoxicity against human HUVEC cells after 96 hrs using tetracolor one; format: ADME, cell-based
HCT-116 [5] = assay: Antitumor activity against human HCT116 cells xenografted in BALB/c mouse assessed as tumor growth inhibition at 1 mg/kg, ip administered on day 1 to day 5 and day 8 to day 12 measured on day 21 relative to control; format: functional; conditions: HCT-116, ip, route intraperitoneal, read-out: TGI
Mus musculus [6] = assay: Toxicity in human HCT116 cells xenografted BALB/c mouse assessed as mortality at 1 mg/kg, ip administered on day 1 to day 5 and day 8 to day 12 measured on day 21; format: organism-based, HCT-116; set-up: dose 1 mg/kg, route intraperitoneal; conditions: in vivo
HCT-116 [7] = assay: Antitumor activity against human HCT116 cells xenografted in BALB/c mouse assessed as tumor growth inhibition at […], ip administered on day 1 to day 5 and day 8 to day 12 measured on day 21 relative to control; format: functional; conditions: HCT-116, ip, dose 0.25 mg/kg, route intraperitoneal, read-out: TGI
Mus musculus [8] = assay: Toxicity in human HCT116 cells xenografted BALB/c mouse assessed as mortality at […], ip administered on day 1 to day 5 and day 8 to day 12 measured on day 21; format: organism-based, HCT-116; set-up: dose 0.25 mg/kg, route intraperitoneal; conditions: in vivo
HCT-116 [9] = assay: Cytotoxicity against human HCT116 cells after 96 hrs using tetracolor one; format: functional, cell-based; conditions: HCT-116, 96 h
HCT-116 [10] = assay: Antitumor activity against human HCT116 cells xenografted in BALB/c mouse assessed as tumor growth inhibition at 1 mg/kg, ip administered on 1, 3 and 5th day measured on day 21 relative to control; format: functional; conditions: HCT-116, ip, 504 h, route intraperitoneal, read-out: TGI
Mus musculus [11] = assay: Toxicity in human HCT116 cells xenografted BALB/c mouse assessed as mortality at 5 mg/kg, ip administered on day 1 to day 5 and day 8 to day 12 measured on day 21; format: organism-based, HCT-116; set-up: dose 5 mg/kg, route intraperitoneal; conditions: in vivo
HCT-116 [12] = assay: Antitumor activity against human HCT116 cells xenografted in BALB/c mouse assessed as tumor growth inhibition at 5 mg/kg, ip administered on day 1 to day 5 and day 8 to day 12 measured on day 21 relative to control; format: functional; conditions: HCT-116, ip, route intraperitoneal, read-out: TGI
[13] = Prodrug conversion assessed as (S)-7-Amino-1,2,3,10-tetramethoxy-6,7-dihydro-5H-benzo[a]heptalen-9-one release at 4 uM in presence of bovine spleen cathepsin-B by HPLC analysis; format: physicochemical; conditions: cattle

Structure (SMILES) | IC50 (HT-29) | IC50 (A549) | IC50 (HCT-116 [9]) | further results
COc1c(O)c2c(c(OC)c1OC)-c1ccc(OC)c(=O)cc1[C@@H](NC(C)=O)CC2 | 484 nM | 225 nM | – | –
COc1c(F)c2c(c(OC)c1OC)-c1ccc(OC)c(=O)cc1[C@@H](NC(=O)OCc1ccc(NC(=O)[C@H](CCCCN)NC(=O)[C@H](Cc3ccccc3)NC(=O)OCc3ccccc3)cc1)CC2 | 91 nM | – | – | Stability [1]: Stable; Ratio IC50 (HUVEC [2]): 1.7; Drug metabolism [3]: Active; IC50 (HUVEC [4]): 151 nM
COc1c(N)c2c(c(OC)c1OC)-c1ccc(OC)c(=O)cc1[C@@H](NC(C)=O)CC2 | 1550 nM | 2180 nM | – | –
COc1c(F)c2c(c(OC)c1OC)-c1ccc(OC)c(=O)cc1[C@@H](NC(C)=O)CC2 | 7 nM | 33 nM | 8 nM | inhibition in vivo at 1 mg/kg (HCT-116 [5]): 55.6%; Activity (Mus musculus [6]): Non-toxic; inhibition in vivo at […] (HCT-116 [7]): 25%; Activity (Mus musculus [8]): Non-toxic
COc1c(C=O)c2c(c(OC)c1OC)-c1ccc(OC)c(=O)cc1[C@@H](NC(C)=O)CC2 | 128 nM | 1010 nM | 54 nM | –
COc1cc2c(c(OC)c1OC)-c1ccc(OC)c(=O)cc1[C@@H](NC(C)=O)CC2 [COLCHICINE] | 8 nM | 54 nM | 11 nM | inhibition in vivo at 1 mg/kg (HCT-116 [10]): 32.8%
COc1c(Cl)c2c(c(OC)c1OC)-c1ccc(OC)c(=O)cc1[C@@H](NC(C)=O)CC2 | 10 nM | 12 nM | 9 nM | Activity (Mus musculus [11]): Non-toxic; inhibition in vivo at 5 mg/kg (HCT-116 [12]): 68.4%
COc1c(F)c2c(c(OC)c1OC)-c1ccc(OC)c(=O)cc1[C@@H](N)CC2 | 80 nM | 101 nM | – | Ratio IC50 (HUVEC [2]): 0.9; IC50 (HUVEC [4]): 75 nM
COc1c(I)c2c(c(OC)c1OC)-c1ccc(OC)c(=O)cc1[C@@H](NC(C)=O)CC2 | 6 nM | 32 nM | 7 nM | –
COc1c(OC)c2c(c([N+](=O)[O-])c1OC)CC[C@H](NC(C)=O)c1cc(=O)c(OC)ccc1-2 | 31 nM | 73 nM | 38 nM | –
COc1cc2c(c(OC)c1OC)-c1ccc(OC)c(=O)cc1[C@@H](NC(=O)OCc1ccc(NC(=O)[C@H](CCCCN)NC(=O)[C@H](Cc3ccccc3)NC(=O)OCc3ccccc3)cc1)CC2 | 44 nM | – | – | Stability [1]: Stable; Ratio IC50 (HUVEC [2]): 1.7; Drug metabolism [13]: Active; IC50 (HUVEC [4]): 75 nM
COc1c(Br)c2c(c(OC)c1OC)-c1ccc(OC)c(=O)cc1[C@@H](NC(C)=O)CC2 | 6 nM | 14 nM | 7 nM | –
COc1c(Cl)c2c(c(OC)c1OC)-c1ccc(OC)c(=O)cc1[C@@H](N)CC2 | 250 nM | 301 nM | – | –
